Laboratory results as given in PMC9126943, “ADAMTS4-specific MR probe to assess aortic aneurysms in vivo using synthetic peptide libraries” (Nature Communications, 2022).
“And” between values parts separate entries of the source, which are not always exact repeats. Equal values may be shown once. “Also recorded” adds a separate entry of the source. Values belong to the molecule of their own block, whether it stands above or below them. Where a SMILES comes first, the peptide text is derived from it. Bridges are numbered along the chain shown (N, C = ends). The star is where a group is joined. Cy5(nonsulfonated) = CN1C(=CC=CC=CC2=[N+](CCCCCC(=O)*)c3ccccc3C2(C)C)C(C)(C)c2ccccc21

Columns and labels:
ADAMTS4 [1] = target: T1, ADAMTS4 (Homo sapiens, UniProt O75173); test: MST instrument, ligand-dependent fluorescence change, Cy5-labeled peptides vs ADAMTS4 (incl. alanine scan); type: binding; conditions: for binding to ADAMTS4 (ligand-dependent fluorescence change), in words: Cy5-labeled peptide 3 nM, 25 °C, n = 3
T1 construct: This is consistent with the recombinant proteins, we used in the screening process; purchased BioTeZ Berlin-Buch GmbH 30 400 102
T1 sequence (O75173 213-685): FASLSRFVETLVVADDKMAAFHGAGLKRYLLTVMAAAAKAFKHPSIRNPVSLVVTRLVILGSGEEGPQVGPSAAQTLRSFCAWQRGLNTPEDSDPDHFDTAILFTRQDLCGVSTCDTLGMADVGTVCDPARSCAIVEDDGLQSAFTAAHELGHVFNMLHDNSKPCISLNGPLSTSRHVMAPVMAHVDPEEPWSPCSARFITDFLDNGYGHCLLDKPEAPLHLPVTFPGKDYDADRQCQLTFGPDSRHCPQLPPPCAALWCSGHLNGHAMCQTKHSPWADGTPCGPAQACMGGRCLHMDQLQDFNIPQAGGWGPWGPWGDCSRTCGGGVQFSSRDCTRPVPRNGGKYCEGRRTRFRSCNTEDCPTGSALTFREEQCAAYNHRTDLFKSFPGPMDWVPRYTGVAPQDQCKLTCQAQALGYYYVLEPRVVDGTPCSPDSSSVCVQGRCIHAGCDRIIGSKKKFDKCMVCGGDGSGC
Description: Microscale thermophoresis (MST) was performed on a Monolith Pico (NanoTemper, Munich, Germany). The Cy5-labeled peptides were diluted into the MST buffer (150 mM NaCl, 50 mM TRIS-HCl, 5 mM CaCl2, and Tween-20) to reach a dilution of 6 nM. ADAMTS4, ADAMTS5, and ADAMTS1 were directly used with the supplied concentration. For ADAMTS4, the starting concentration was 4.96 µM, while for ADAMTS1 it was 4.88 µM and for ADAMTS5 it was 2.46 µM. […] 20 µl of the protein solutions were transferred into a PCR tube. 10 µl of this first vial was transferred into a second vial and mixed by pipetting with 10 µl of the MST buffer. The dilution series was continued 14 times. From tube 16, 10 µl were removed. Into all 16 tubes, 10 µl of the respective peptide solution were added and mixed by pipetting. The samples were incubated for 20 min and subsequently transferred to premium capillaries (NanoTemper, Munich, Germany). The capillaries were transferred into the Monolith tray and measured with 10% excitation power on the pico-red excitation on high MST power at 25 °C. Analysis was performed with MO.Affinity Analysis v3.0.1 (NanoTemper, Munich, Germany) and Origin 2022 (OriginLab Corporation, Northampton, MA). […] We checked for ADAMTS4 and the ADAMTS4-specific-Cy5-labeled probe via a saturation test for specifying the ligand-dependent fluorescence change. Therefore, the three highest ligand concentrations and the three lowest ligand concentrations of the measurement were used and centrifuged for 15 min at 16060 x g at 20 °C. Of each concentration, 7 µl were picked and mixed with 7 µl of a 10 M urea solution each. The samples were heated at 95 °C for 5 min and measured in the MST. […] Each measurement was repeated three times independently and the binding constant was calculated by merging all three measurements. […] The data were normalized using MO Affinity Analysis v3.0.1 and the fraction bound [−] was shown. […] Therefore, the percentage variance of the values to the average was plotted.
All measurements were performed with 10% LED power, high MST power and at 25 °C. The ligand dependent fluorescence change was used for determining the binding. […] The concentrations of the peptide were kept constant (3 nM in the measurement), while the proteins were diluted in the same manner as for ADAMTS4. […] The Cy5-labeled peptides (3 nM in the measurement) were kept constant, while ADAMTS4 was diluted in the same manner for each peptide (n=3 biologically independent measurements for each peptide; the data are presented as mean values ± SD). […] MST: microscale thermophoresis; nM: nanomolar; His: L-histidine; LED: light-emitting diode; n/a: not available; KD: binding constant.

ADAMTS4 [2] = target: T1, ADAMTS4; test: MST trace (MST points at 2.5 seconds) of peptides without fluorescence change; type: binding; conditions: high MST power
Description: Microscale thermophoresis (MST) was performed on a Monolith Pico (NanoTemper, Munich, Germany). The Cy5-labeled peptides were diluted into the MST buffer (150 mM NaCl, 50 mM TRIS-HCl, 5 mM CaCl2, and Tween-20) to reach a dilution of 6 nM. ADAMTS4, ADAMTS5, and ADAMTS1 were directly used with the supplied concentration. For ADAMTS4, the starting concentration was 4.96 µM, while for ADAMTS1 it was 4.88 µM and for ADAMTS5 it was 2.46 µM. Since we saw a loss of binding after centrifugation, the use of protein concentrators were inappropriate. 20 µl of the protein solutions were transferred into a PCR tube. 10 µl of this first vial was transferred into a second vial and mixed by pipetting with 10 µl of the MST buffer. […] The capillaries were transferred into the Monolith tray and measured with 10% excitation power on the pico-red excitation on high MST power at 25 °C. […] We detected a ligand-dependent fluorescence change for some of the systems. We checked for ADAMTS4 and the ADAMTS4-specific-Cy5-labeled probe via a saturation test for specifying the ligand-dependent fluorescence change. […] The samples were heated at 95 °C for 5 min and measured in the MST. The fluorescence difference between the concentrations was afterward at the same level. Each measurement was repeated three times independently and the binding constant was calculated by merging all three measurements. […]

[3] = target: T2, ADAMTS4 in the aortic wall of ApoE−/− mice (Mus musculus, UniProt Q8BNJ2); test: In vivo MRI with negative control probe and ADAMTS4-specific probe; conditions: for CNR post administration, individual animals: d1 = negative control probe, d2 = ADAMTS4-specific probe, 0.13 mmol/kg
T2 construct: from tissue
T2 sequence (Q8BNJ2 209-833): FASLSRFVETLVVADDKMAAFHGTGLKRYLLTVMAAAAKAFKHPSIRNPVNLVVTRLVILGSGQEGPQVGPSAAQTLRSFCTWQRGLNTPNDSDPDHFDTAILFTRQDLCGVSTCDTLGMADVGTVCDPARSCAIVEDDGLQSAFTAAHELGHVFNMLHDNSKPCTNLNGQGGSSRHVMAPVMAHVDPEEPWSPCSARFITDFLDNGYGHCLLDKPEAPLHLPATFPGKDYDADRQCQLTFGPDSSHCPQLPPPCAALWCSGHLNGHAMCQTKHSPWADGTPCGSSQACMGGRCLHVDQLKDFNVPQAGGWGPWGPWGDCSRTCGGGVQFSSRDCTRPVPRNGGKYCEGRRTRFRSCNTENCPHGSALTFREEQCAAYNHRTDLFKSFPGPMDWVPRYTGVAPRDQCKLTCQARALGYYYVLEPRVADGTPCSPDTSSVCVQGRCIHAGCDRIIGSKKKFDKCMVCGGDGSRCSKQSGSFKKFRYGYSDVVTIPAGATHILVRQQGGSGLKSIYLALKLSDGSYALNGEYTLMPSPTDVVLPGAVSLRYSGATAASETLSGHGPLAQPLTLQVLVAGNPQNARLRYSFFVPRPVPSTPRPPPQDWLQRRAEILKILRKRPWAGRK
Description: In vivo MR imaging was performed in 6 ApoE^−/− mice (n = 6): three mice (n = 3) received AngII through the osmotic minipumps, three mice (n = 3) received saline, serving as the control group. MR imaging was performed 4 weeks after minipump implantation. On day 1, a native MR scan was followed by the intravenous injection of the negative control peptide (0.13 mmol/kg) and a subsequent MR scan. 24 h later, mice were imaged prior to and following the intravenous administration of the ADAMTS4-specific probe (0.13 mmol/kg).
Analysis of resulting MR images was performed using OsiriX (version 7.1, OsiriX Foundation, Bernex, Switzerland). All morphometric measurements were conducted on high-resolution MRI images. In order to assess the signal intensities, regions of interest (ROIs) were measured as areas of signal enhancement, which were co-localized with areas of aneurysmal-aortic tissue. For these areas, the CNR was calculated using the following formula: CNR = (Combined vessel-wall and aneurysmal-aortic-tissue-signal − blood-signal)/standard-deviation-signal (noise). The signal of noise was defined as the standard deviation in pixel intensity from an ROI placed in the background air anterior to the aorta.

[4] = target: ADAMTS4-specific peptide with the glycine exchanged for alanine (alanine scan peptide), Cy5-labeled; test: MST; Monolith Pico; read-out is the ligand-dependent fluorescence change, not the thermophoresis; Cy5-labeled peptide constant (6 nM solution), protein in a 16-step 1:1 dilution series; 150 mM NaCl, 50 mM TRIS-HCl, 5 mM CaCl2, Tween-20; 25 °C
[5] = target: ADAMTS4-specific probe, Cy5-labeled (cyclic peptide Cys*-Ser-Arg-Arg-Gly-Cys*-Ser with peptide linker); test: as above

Molecule: C[C@@H]1NC(=O)[C@H](CCCNC(=N)N)NC(=O)[C@H](CCCNC(=N)N)NC(=O)[C@H](CO)NC(=O)[C@@H](N)CSSC[C@@H](C(=O)N[C@@H](CO)C(=O)NCC(=O)NCC(=O)N[C@@H](CO)C(=O)NCC(=O)NCC(=O)N[C@@H](CCCCNC(=O)CCCCCN2C(=CC=CC=CC3=[N+](C)c4ccccc4C3(C)C)C(C)(C)c3ccccc32)C(=O)NCC(N)=O)NC1=O [ADAMTS4-specific probe-Gly] (H-CSRRACSGGSGGK(Cy5(nonsulfonated))G-NH2; disulfide 1-6; N-terminus and C-terminus assumed)
binding to ADAMTS4 (ligand-dependent fluorescence change), in words (ADAMTS4 [1]): decrease the binding; also recorded: a ligand dependent fluorescence change occurs
decrease in the binding affinity versus the parent peptide (ADAMTS4 [1]; alanine scan): around ten times

Molecule: Cys*-Phe-His-Pro-Tyr-Cys*-Ser (disulfide) [negative control peptide]
binding to ADAMTS4 (ligand-dependent fluorescence change), in words (ADAMTS4 [1]): could not find binding; also recorded: no fluorescence change was detectable; also recorded: did not show any binding
binding in the MST trace (ADAMTS4 [2]): no binding occurs

CNR post administration, individual animals ([3]; AAA (AngII) mice): 7.71 and 5.8 and 6.78
CNR post administration, individual animals ([3]; control (c, saline) mice): 4.54 and 4.4 and 5.52
Molecule: Cys*-Phe-His-Pro-Tyr-Cys*-linker (DOTA-Gd) (disulfide) [negative control probe, Cys*-Phe-His-Pro-Tyr-Cys*-linker (DOTA-Gd), similar size to the ADAMTS4-specific probe]
increase in MR signal / CNR in the aortic wall, in words ([3]; 0.13 mmol/kg i.v., 4 weeks after minipump implantation, n = 6): no significant increase; also recorded: significantly lower increase

Kd [4]: 0.609 µM
Kd [5]: 0.051 µM
B1: ADAMTS4 (A Disintegrin And Metalloproteinase with ThromboSpondin motifs 4), recombinant human (enzyme)
chain: T1 sequence (O75173 213-685)
